From patent US9233968B1, “Kinase inhibitors” (Allergan, Inc., priority 2014, dated 2016)

Legend:
VEGFR2 = VEGFR2 (Homo sapiens (Human), UniProt P35968); assay: VEGFR2 Cellular Assay (FLIPR, VEGF induced intracellular calcium in HUVEC); format: cell-based; details: VEGF165 stimulation 10 ng/mL, read-out: Receptor VEGFR2 IC50
Method: (§1) VEGFR2 Cellular Assay Automated FLIPR (Fluorometric Imaging Plate Reader) technology was used to screen for inhibitors of VEGF induced increases in intracellular calcium levels in fluorescent dye loaded endothelial cells. HUVEC (human umbilical vein endothelial cells) (Clonetics) were seeded in 384-well fibronectin coated black-walled plates overnight at 37° C./5% CO2. Cells were loaded with calcium indicator Fluo-4 for 45 minutes at 37° C. Cells were washed 2 times (Elx405, Biotek Instruments) to remove extracellular dye. For screening, cells were pre-incubated with test agents for 30 minutes, at a single concentration (10 μM) or at concentrations ranging from 0.0001 to 10.0 μM followed by VEGF165 stimulation (10 ng/mL). […] Data were generated by determining max-min fluorescence levels for unstimulated, stimulated, and drug treated samples. IC50 values for test compounds were calculated from % inhibition of VEGF stimulated responses in the absence of inhibitor.

[1] = target: VEGFR2 (cytoplasmic domain KDR protein) (Homo sapiens (Human), UniProt P35968); assay: VEGFR2 Kinase Assay (biochemical KDR kinase assay); details: 2.7 μM ATP, poly-Glu-Tyr substrate; read-out: Enzyme VEGFR2 IC50
VEGFR2 (cytoplasmic domain KDR protein), sequence (P35968 786-1356): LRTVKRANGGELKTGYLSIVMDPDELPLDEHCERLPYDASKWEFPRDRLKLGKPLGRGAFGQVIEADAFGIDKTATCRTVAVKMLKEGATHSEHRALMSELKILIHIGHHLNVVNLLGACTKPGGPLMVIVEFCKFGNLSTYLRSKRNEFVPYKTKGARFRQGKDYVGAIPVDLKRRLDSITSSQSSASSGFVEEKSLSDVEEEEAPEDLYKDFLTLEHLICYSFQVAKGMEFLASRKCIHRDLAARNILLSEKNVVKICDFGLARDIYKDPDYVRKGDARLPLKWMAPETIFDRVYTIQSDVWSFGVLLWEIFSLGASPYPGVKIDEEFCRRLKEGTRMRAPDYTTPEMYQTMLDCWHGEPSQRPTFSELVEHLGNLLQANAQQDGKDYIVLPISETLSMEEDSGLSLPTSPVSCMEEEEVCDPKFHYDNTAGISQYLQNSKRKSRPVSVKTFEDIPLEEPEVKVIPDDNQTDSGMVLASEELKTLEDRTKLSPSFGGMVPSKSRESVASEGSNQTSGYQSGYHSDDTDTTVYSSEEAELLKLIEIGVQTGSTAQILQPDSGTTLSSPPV
Method: Biochemical KDR kinase assays were performed in 96 well microtiter plates that were coated overnight with 75 μg/well of poly-Glu-Tyr (4:1) in 10 mM Phosphate Buffered Saline (PBS), pH 7.4. The coated plates were washed with 2 mls per well PBS+0.05% Tween-20 (PBS-T), blocked by incubation with PBS containing 1% BSA, then washed with 2 mls per well PBS-T prior to starting the reaction. Reactions were carried out in 100 μL reaction volumes containing 2.7 μM ATP in kinase buffer (50 mM Hepes buffer pH 7.4, 20 mM MgCl2, 0.1 mM MnCl2 and 0.2 mM Na3VO4). […] Reactions were initiated by the addition 20 μl per well of kinase buffer containing 200-300 ng purified cytoplasmic domain KDR protein (BPS Bioscience, San Diego, Calif.). Following a 15 minute incubation at 30° C., the reactions were washed 2 mls per well PBS-T. 100 μl of a monoclonal anti-phosphotyrosine antibody-peroxidase conjugate diluted 1:10,000 in PBS-T was added to the wells for 30 minutes. Following a 2 mls per well wash with PBS-Tween-20, 100 μl of O-Phenylenediamine Dihydrochloride in phosphate-citrate buffer, containing urea hydrogen peroxide, was added to the wells for 7-10 minutes as a colorimetric substrate for the peroxidase. The reaction was terminated by the addition of 100 μl of 2.5N H2SO4 to each well and read using a microplate ELISA reader set at 492 nm. IC50 values for compound inhibition were calculated directly from graphs of optical density (arbitrary units) versus compound concentration following subtraction of blank values.

PDGFRβ = PDGFRβ (Homo sapiens (Human), UniProt P09619); assay: PDGFRβ Cellular Assay (FLIPR, PDGF-induced intracellular calcium in NHDF-Ad); format: cell-based; details: PDGF-BB stimulation 30 ng/mL, read-out: Receptor PDGFRβ IC50
PDGFRβ, sequence (P09619 33-1106): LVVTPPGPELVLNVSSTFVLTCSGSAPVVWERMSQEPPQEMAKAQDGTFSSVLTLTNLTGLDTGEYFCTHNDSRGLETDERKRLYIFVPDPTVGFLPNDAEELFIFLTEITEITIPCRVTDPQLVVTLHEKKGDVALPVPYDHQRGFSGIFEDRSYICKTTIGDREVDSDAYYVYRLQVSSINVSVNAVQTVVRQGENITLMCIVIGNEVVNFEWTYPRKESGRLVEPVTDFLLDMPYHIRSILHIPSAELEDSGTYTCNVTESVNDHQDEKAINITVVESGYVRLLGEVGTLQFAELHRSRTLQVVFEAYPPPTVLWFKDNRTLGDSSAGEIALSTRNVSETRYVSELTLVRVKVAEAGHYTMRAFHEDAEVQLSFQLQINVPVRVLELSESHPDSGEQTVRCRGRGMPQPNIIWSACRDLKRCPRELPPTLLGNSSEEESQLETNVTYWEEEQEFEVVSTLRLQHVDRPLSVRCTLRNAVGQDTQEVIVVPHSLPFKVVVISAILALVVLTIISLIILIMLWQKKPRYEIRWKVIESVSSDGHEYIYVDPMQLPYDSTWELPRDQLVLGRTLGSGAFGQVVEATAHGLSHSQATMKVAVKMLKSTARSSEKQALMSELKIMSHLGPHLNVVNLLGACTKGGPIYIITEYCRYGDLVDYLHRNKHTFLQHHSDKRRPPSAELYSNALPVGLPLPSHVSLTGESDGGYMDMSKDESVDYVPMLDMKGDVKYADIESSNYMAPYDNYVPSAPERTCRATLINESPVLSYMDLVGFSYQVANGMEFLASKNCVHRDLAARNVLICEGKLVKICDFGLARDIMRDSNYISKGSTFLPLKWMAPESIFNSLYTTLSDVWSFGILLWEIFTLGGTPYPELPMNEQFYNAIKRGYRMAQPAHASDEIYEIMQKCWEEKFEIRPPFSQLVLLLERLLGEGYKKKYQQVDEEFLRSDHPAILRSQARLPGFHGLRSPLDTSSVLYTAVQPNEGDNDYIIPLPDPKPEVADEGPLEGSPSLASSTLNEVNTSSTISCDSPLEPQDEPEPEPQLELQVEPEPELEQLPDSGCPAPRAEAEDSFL
Method: as §1, with “Automated” for “VEGFR2 Cellular Assay Automated”, “of PDGF-induced” for “of VEGF induced”, “cells. NHDF-Ad (Normal Human Dermal Fibroblasts, Adult; Lonza)” for “cells. HUVEC (human umbilical vein endothelial cells) (Clonetics)”, “by PDGF-BB” for “by VEGF165”, “stimulation (30” for “stimulation (10”, “of PDGF-BB” for “of VEGF”

[2] = target: PDGFRβ (cytoplasmic domain PDGFR-b protein) (Homo sapiens (Human), UniProt P09619); assay: PDGFRβ Kinase Assay; format: biochemical; details: 36 μM ATP, poly-Glu-Tyr substrate; read-out: Enzyme PDGFRβ IC50
PDGFRβ (cytoplasmic domain PDGFR-b protein), sequence (P09619 554-1106): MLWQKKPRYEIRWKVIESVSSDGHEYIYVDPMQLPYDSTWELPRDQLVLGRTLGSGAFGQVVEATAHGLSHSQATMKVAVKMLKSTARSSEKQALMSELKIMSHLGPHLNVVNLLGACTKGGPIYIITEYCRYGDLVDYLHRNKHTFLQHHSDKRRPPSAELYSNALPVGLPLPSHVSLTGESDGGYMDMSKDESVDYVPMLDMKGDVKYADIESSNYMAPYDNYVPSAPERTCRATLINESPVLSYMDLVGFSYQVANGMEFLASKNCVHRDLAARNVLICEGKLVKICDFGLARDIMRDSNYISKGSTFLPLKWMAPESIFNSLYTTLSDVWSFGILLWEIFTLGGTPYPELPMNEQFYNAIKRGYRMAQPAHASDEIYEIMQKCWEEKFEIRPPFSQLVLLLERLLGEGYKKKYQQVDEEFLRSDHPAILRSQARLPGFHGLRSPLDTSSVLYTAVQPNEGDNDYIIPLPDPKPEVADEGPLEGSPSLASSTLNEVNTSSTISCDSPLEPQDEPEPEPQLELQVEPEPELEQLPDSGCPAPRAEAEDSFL
Method: Biochemical PDGFRβ kinase assays were performed in 96 well microtiter plates that were coated overnight with 75 μg of poly-Glu-Tyr (4:1) in 10 mM Phosphate Buffered Saline (PBS), pH 7.4. The coated plates were washed with 2 mls per well PBS+0.05% Tween-20 (PBS-T), blocked by incubation with PBS containing 1% BSA, then washed with 2 mls per well PBS-T prior to starting the reaction. […] Reactions were initiated by the addition 20 μl per well of kinase buffer containing 200-300 ng purified cytoplasmic domain PDGFR-b protein (Millipore). Following a 60 minute incubation at 30° C., the reactions were washed 2 mls per well PBS-T. 100 μl of a monoclonal anti-phosphotyrosine antibody-peroxidase conjugate diluted 1:10,000 in PBS-T was added to the wells for 30 minutes. Following a 2 mls per well wash with PBS-Tween-20, 100 μl of O-Phenylenediamine Dihydrochloride in phosphate-citrate buffer, containing urea hydrogen peroxide, was added to the wells for 7-10 minutes as a colorimetric substrate for the peroxidase. […] IC50 values for compound inhibition were calculated directly from graphs of optical density (arbitrary units) versus compound concentration following subtraction of blank values.

VEGFR2, sequence (P35968 20-1356): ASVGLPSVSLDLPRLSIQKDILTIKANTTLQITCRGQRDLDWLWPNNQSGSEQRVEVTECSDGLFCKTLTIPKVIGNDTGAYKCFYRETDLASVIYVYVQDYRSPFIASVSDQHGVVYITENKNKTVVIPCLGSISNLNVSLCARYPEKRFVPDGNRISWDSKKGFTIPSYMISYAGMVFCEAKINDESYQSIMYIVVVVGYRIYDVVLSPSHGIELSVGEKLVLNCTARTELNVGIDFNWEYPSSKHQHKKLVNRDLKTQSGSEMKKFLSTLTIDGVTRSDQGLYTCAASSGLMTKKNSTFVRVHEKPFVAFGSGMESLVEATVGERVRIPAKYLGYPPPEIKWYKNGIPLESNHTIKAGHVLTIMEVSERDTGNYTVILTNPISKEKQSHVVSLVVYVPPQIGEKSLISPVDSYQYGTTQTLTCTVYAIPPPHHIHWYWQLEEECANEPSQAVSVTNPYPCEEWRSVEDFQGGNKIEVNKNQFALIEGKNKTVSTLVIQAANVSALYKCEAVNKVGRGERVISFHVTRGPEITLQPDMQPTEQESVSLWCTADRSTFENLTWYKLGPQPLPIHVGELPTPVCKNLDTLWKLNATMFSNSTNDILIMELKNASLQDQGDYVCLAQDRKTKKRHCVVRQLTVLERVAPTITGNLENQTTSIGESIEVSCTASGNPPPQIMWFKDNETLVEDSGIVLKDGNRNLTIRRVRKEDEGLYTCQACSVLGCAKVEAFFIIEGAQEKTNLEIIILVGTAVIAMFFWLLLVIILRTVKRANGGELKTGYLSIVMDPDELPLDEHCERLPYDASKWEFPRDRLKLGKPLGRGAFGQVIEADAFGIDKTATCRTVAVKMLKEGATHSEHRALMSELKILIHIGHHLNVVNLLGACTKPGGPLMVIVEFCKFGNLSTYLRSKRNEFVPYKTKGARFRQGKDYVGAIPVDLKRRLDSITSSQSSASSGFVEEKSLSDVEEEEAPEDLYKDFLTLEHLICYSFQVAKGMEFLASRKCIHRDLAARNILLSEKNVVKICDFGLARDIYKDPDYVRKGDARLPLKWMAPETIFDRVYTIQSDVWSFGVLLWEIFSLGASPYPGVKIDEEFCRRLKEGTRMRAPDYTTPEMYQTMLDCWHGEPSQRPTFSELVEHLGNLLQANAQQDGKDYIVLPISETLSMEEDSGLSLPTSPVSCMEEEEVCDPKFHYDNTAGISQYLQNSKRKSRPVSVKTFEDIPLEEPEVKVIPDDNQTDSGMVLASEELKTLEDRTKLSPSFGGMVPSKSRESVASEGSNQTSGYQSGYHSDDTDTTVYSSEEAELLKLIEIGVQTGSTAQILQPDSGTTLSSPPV

| Structure (SMILES) | IC50 (VEGFR2) | IC50 [1] | IC50 (PDGFRβ) | IC50 [2] |
| --- | --- | --- | --- | --- |
| Cc1ccc(F)c(C(=O)Nc2ccc(C#Cc3ccc4nc(N)cn4n3)cc2)c1 [Example 20, N-{4-[(2-aminoimidazo[1,2-b]pyridazin-6-yl)ethynyl]phenyl}-2-fluoro-5-methylbenzamide] | 4400 nM | > 10000 nM | > 10000 nM | > 10000 nM |
| O=C(Nc1cccc(C#Cc2ccc3nccn3n2)c1)c1cccc(C(F)(F)F)c1 [Example 22, N-[3-(imidazo[1,2-b]pyridazin-6-ylethynyl)phenyl]-3-(trifluoromethyl)benzamide] | 1280 nM | 279 nM | 1630 nM | 628 nM |
| O=C(Nc1cccc(C#Cc2ccc3nccn3n2)c1)c1cc2ccccc2o1 [Example 25, N-[3-(imidazo[1,2-b]pyridazin-6-ylethynyl)phenyl]-1-benzofuran-2-carboxamide] | > 10000 nM | 1610 nM | > 10000 nM | 2720 nM |
| Cc1ccc(F)c(C(=O)Nc2cccc(C#Cc3ccc4nccn4n3)c2)c1 [Example 26, 2-fluoro-N-[3-(imidazo[1,2-b]pyridazin-6-ylethynyl)phenyl]-5-methylbenzamide] | 3040 nM | 1620 nM | > 10000 nM | 6080 nM |

Results, then the compound that gave them:

| IC50 (VEGFR2) | IC50 [1] | IC50 (PDGFRβ) | IC50 [2] | Structure (SMILES) |
| --- | --- | --- | --- | --- |
| 1120 nM | 88 nM | 371 nM | 767 nM | Cc1ccc(F)c(C(=O)Nc2cccc(C#Cc3ccc4nc(N)cn4n3)c2)c1 [Example 21, N-{3-[(2-aminoimidazo[1,2-b]pyridazin-6-yl)ethynyl]phenyl}-2-fluoro-5-methylbenzamide] |
| 1460 nM | 464 nM | 2680 nM | 938 nM | O=C(Nc1cccc(C#Cc2ccc3nccn3n2)c1)c1ccc(F)c(Cl)c1 [Example 24, 3-chloro-4-fluoro-N-[3-(imidazo[1,2-b]pyridazin-6-ylethynyl)phenyl]benzamide] |
| > 10000 nM | 2360 nM | 17800 nM | 27 nM | O=C(Nc1cccc(C#Cc2ccc3nccn3n2)c1)c1ccccc1 [Example 27, N-[3-(imidazo[1,2-b]pyridazin-6-ylethynyl)phenyl]benzamide] |
